For series [1], the system named is vascular resistance of the vertebral artery. As to the kind of experiment: vascular resistance of the vertebral artery in anesthetized dogs. Type of series: in vivo. The conditions noted are these: intravenous injection; for ED30: Canis lupus familiaris, vertebral artery vascular resistance. How it is done: The pharmacological effect (ED30) of selected 2-chloro-1,4-dihydropyridine derivatives of the present invention with respect to the vascular resistance of the vertebral artery in anesthetized dogs was treated by the following procedures.
Adult dogs of either sex (7-14 kg in body weight) were anesthetized with at first thiopental sodium (35 mg/kg, intraperitoneal), anesthetized with urethane (400 mg/kg, intravenous) and α-chloalose (60 mg/kg, intravenous) and kept under artificial respiration throughout the experiment. After thoracotomy at the left first intercostal space, the vertebral artery was exposed and blood flow was measured with an intracorporeal flow probe connected to an electromagnetic flowmeter (MF-27, Nihon Kohden).
At the same time, continuous measurement of the following parameters was made: systemic blood pressure (mean pressure) at the right femoral artery, the limb lead II ECG, the heart rate with a tachometer triggered by the R wave of ECG, and the vascular resistance determined by loading an electronic divider (EO-601 G, Nihon Kohden) with the mean values of blood pressure and vertebral artery blood flow. All of these parameters were recorded simultaneously on a polygraph (RM-600, Nihon Kohden).
All the test compounds were injected through a cannula inserted into the femoral vein.
The ED30 (μg/kg) values obtained by intravenous injection and the values of T1/2 (min) (the time to reach 50% of the resistance drop) are shown in Table 3, wherein the Compound Numbers are keyed to the Example Numbers.

A short description of series [2]: acute toxicity (LD50) in male mice. The settings on record: mouse, in vivo. The text has this:
The acute toxicity (LD50) data of selected compounds of the present invention as administered to two groups of male mice were obtained and the results are shown in Table 5. One group of mice which received peroral administration had been starved overnight. Each of the test compounds was suspended in 0.5% CMC-Na for peroral administration, or dissolved in dimethyl sulfoxide and diluted with physiological saline solution for intravenous injection.

For series [3], the system named is conscious spontaneously hypertensive rats (SHR). As to the kind of experiment: hypotensive action in conscious spontaneously hypertensive rats (SHR). The conditions noted are these: 10 mg/kg orally, starved overnight. It is filed as in vivo. How it is done: Selected compounds of the present invention were tested for their hypotensive action in conscious spontaneously hypertensive rats (SHR).
A group of 17 to 20-week old male SHR were anesthetized with ether and a cannula was inserted into the left femoral artery. At least one day after the operation, the cannula was connected to a pressure transducer and the blood pressure was measured continuously under conscious and unrestrained condition, thereby obtaining the data shown in Table 4. Each of the test compounds as a clear suspension in 0.5% CMC-Na was administered orally at a dose of 10 mg/kg (body weight) to each animal which was starved overnight.

The subject of series [4] is isolated guinea pig hearts (coronary artery). As to the kind of experiment: coronary vascular dilative effect in isolated guinea pig hearts (Langendorff). The arrangement: species or system Hartley guinea pigs. The conditions noted are these: isolated hearts perfused at 37° C., 0.1 ml of diluted solution into the coronary artery. How it is done: The coronary vascular dilative effect of selected 2-chloro-1,4-dihydropyridine derivatives of the present invention was tested.
Hartley guinea pigs (weight 400-500 g) were killed by a blow on the head and their hearts were immediately isolated. The hearts were perfused with Krebs-Henseleit solution bubbled with a mixture of 95% O2 +5% CO2 and maintained at 37° C. at a constant rate of 6 ml/minute according to Langendorff's method [J. Pharmacol. Methods 2, 143 (1979)]. The perfusion pressure was measured continuously by a pressure transducer. Samples were prepared by emulsifying 1 mg of a test compound in 1 ml of a mixture of dimethylsulfoxide and physiological saline solution (1:9) and diluting with physiological saline solution to the predetermined concentration. 0.1 ml of the diluted solution was administered into the coronary artery via rubber tube connected to an aorta cannula to obtain ED50 (μg/heart) data as shown in Table 2. The numbers of the compounds in the Table correspond respectively to those of the working examples described above.

The mark [5] stands for this setting: iv, male mice, read-out: LD50 i.v.
[6] abbreviates: po, male mice starved overnight, suspended in 0.5% CMC-Na, read-out: LD50 p.o.

Molecules are shown by their SMILES. Like-named read-outs stand apart in the source and are kept apart here. A value given as a limit tells only on which side of the number the result lay.

The values below come from patent publication US4824837A, “Novel 1,4-dihydropyridine derivatives, process for preparing the same, and agents for treating disorders of circulatory system” (Suntory Limited, priority 1985, dated 1989).

Take `COC(=O)C1=C(Cl)NC(C)=C(C(=O)OCCCCCc2ccccc2)C1c1cccc([N+](=O)[O-])c1` (stereo not drawn) [SUN 5088]: in series [1], the ED30 was found to be 0.0014 mg/kg and the “T1/2 (the time to reach 50% of the resistance drop)” value is 17.0 min.

With `COC(=O)C1=C(Cl)NC(C)=C(C(=O)OCCN2CCN(C(c3ccccc3)c3ccccc3)CC2)C1c1cccc([N+](=O)[O-])c1` (stereo not drawn) [SUN 4752, 5-[2-(4-Benzhydrylpiperazin-1-yl)ethyl]oxycarbonyl-2-chloro-3-methoxycarbonyl-6-methyl-4-(3-nitrophenyl)-1,4-dihydropyridine], in series [1], the ED30 turned out to be 0.003 mg/kg and the “T1/2 (the time to reach 50% of the resistance drop)” value is given as over 30 min. The LD50 in series [2] (setting [5]) was 23 to 27 mg/kg. The LD50 in series [2] (setting [6]) was determined as 1000 mg/kg. In series [3], the “Blood pressure drop, Maximum drop” value is on record as 35% and the “Blood pressure drop, 6 hours” value was determined as 30%.

`COC(=O)C1=C(C)NC(C)=C(C(=O)OCCN(C)Cc2ccccc2)C1c1cccc([N+](=O)[O-])c1` (stereo not drawn) [Nicardipine, reference compound]: the LD50 in series [2] (setting [5]) is 12.2 mg/kg. Moreover, the LD50 in series [2] (setting [6]) is 455 mg/kg. Also, in series [3], the “Blood pressure drop, Maximum drop” value is reported as 39% and the “Blood pressure drop, 6 hours” value is reported as 10-20%.

In series [1], `COC(=O)C1=C(C)NC(Cl)=C(C(=O)OC)C1c1ccccc1[N+](=O)[O-]` (stereo not drawn) [SUN 4671] had an ED30 of 0.00059 mg/kg.

As for `COC(=O)C1=C(Cl)NC(C)=C(C(=O)OCCOc2ccccc2)C1c1cccc([N+](=O)[O-])c1` (stereo not drawn) [SUN 5151], in series [1], the ED30 worked out at 0.0036 mg/kg and the “T1/2 (the time to reach 50% of the resistance drop)” value turned out to be 10.5 min.

Take `COC(=O)C1=C(Cl)NC(C)=C(C(=O)OC(C)C)C1c1cccc([N+](=O)[O-])c1` (stereo not drawn) [SUN 5141]: in series [1], the ED30 was determined as 0.00028 mg/kg and the “T1/2 (the time to reach 50% of the resistance drop)” value amounted to 10.6 min. Besides, in series [2] (setting [5]), the LD50 stood at 80 mg/kg. Moreover, the ED50 in series [4] is recorded as 0.05 μg/heart. Further, in series [3], the “Blood pressure drop, Maximum drop” value amounted to 51% and the “Blood pressure drop, 6 hours” value is given as 33%.

`COC(=O)C1=C(Cl)NC(C)=C(C(=O)OC(CN(C)Cc2ccccc2)c2ccccc2)C1c1cccc([N+](=O)[O-])c1` (stereo not drawn) [SUN 5181] showed an ED30 in series [1] of 0.0021 mg/kg.

Turning to `COC(=O)C1=C(Cl)NC(C)=C(C(=O)OC2CCCN(Cc3ccc(F)cc3)C2)C1c1cccc([N+](=O)[O-])c1` (stereo not drawn) [SUN 5142, 2-Chloro-5-[1-(4-fluorobenzyl)piperidin-3-yl]oxycarbonyl-3-methoxycarbonyl-6-methyl-4-(3-nitrophenyl)-1,4-dihydroppyridine], in series [1], the ED30 was 0.0028 mg/kg and the “T1/2 (the time to reach 50% of the resistance drop)” value was over 30 min. The ED50 in series [4] was found to be 0.03 μg/heart.

For `COC(=O)C1=C(Cl)NC(C)=C(C(=O)OCCc2cccs2)C1c1cccc([N+](=O)[O-])c1` (stereo not drawn) [SUN 5163], in series [1], the ED30 came to 0.0093 mg/kg and the “T1/2 (the time to reach 50% of the resistance drop)” value came to 14.0 min.

In the case of `COC(=O)C1=C(C)NC(Cl)=C(C(=O)OC)C1c1cccc([N+](=O)[O-])c1` (stereo not drawn) [SUN 4616], in series [1], the ED30 came to 0.0012 mg/kg.

Regarding `CCCCCCCOC(=O)C1=C(C)NC(Cl)=C(C(=O)OC)C1c1cccc([N+](=O)[O-])c1` (stereo not drawn) [SUN 5143], in series [1], the ED30 came out at 0.0022 mg/kg and the “T1/2 (the time to reach 50% of the resistance drop)” value was found to be 20.5 min. This molecule also returned an ED50 in series [4] of 0.02 μg/heart.

`COC(=O)C1=C(Cl)NC(C)=C(C(=O)OCCN2CCN(C3c4ccccc4-c4ccccc43)CC2)C1c1cccc([N+](=O)[O-])c1` (stereo not drawn) [SUN 5018]: in series [1], the ED30 was found to be 0.0043 mg/kg and the “T1/2 (the time to reach 50% of the resistance drop)” value is reported as 15.5 min.

For the molecule `CCOC(=O)C1=C(Cl)NC(C)=C(C(=O)OCCN2CCOCC2)C1c1ccccc1[N+](=O)[O-]` (stereo not drawn) [SUN 5252], in series [1], the ED30 amounted to 0.0036 mg/kg.

Regarding `COC(=O)C1=C(Cl)NC(C)=C(C(=O)OCCN(C)Cc2ccccc2)C1c1cccc([N+](=O)[O-])c1` (stereo not drawn) [SUN 5017], in series [1], the ED30 was 0.0033 mg/kg and the “T1/2 (the time to reach 50% of the resistance drop)” value worked out at 17.0 min.

`COC(=O)C1=C(Cl)NC(C)=C(C(=O)OCC2CC2)C1c1cccc([N+](=O)[O-])c1` (stereo not drawn) [SUN 5164] returned an ED30 in series [1] of 0.00022 mg/kg.

With `COCCOC(=O)C1=C(C)NC(Cl)=C(C(=O)OC)C1c1cccc([N+](=O)[O-])c1` (stereo not drawn) [SUN 5220], in series [1], the ED30 turned out to be 0.0058 mg/kg and the “T1/2 (the time to reach 50% of the resistance drop)” value is reported as 13.5 min.

A word on the LD50: it is the dose expected to kill half of the subjects tested.
